These results are taken from US11642332B2, “(2R,4R)-5-(5′-chloro-2′-fluorobiphenyl-4-yl)-2-hydroxy-4-[(5-methyloxazole-2-carbonyl)amino]pentanoic acid” (THERAVANCE BIOPHARMA R&D IP, LLC, priority 2015, dated 2023).

Data set [1] concerns the target T1, human neprilysin (EC 3.4.24.11; NEP) (Homo sapiens, UniProt P08473).
T1 construct: purchased R&D Systems 1182-ZN
Put plainly: In vitro assay for the quantitation of inhibitor potency at human NEP. The format is biochemical. To be noted: recombinant human NEP, fluorogenic peptide substrate 10 μM, 37° C.; read-out: pKi at human NEP (converted). As to the method: The inhibitory activity at human neprilysin (EC 3.4.24.11; NEP) was determined as follows.
Recombinant human NEP was obtained commercially (R&D Systems, Minneapolis, Minn., catalog number 1182-ZN). The fluorogenic peptide substrate Mca-D-Arg-Arg-Leu-Dap-(Dnp)-OH (Medeiros et al. (1997) Braz. J. Med. Biol. Res. 30:1157-62; Anaspec, San Jose, Calif.) was used.
The assay was performed in 384-well white opaque plates at 37° C. using the fluorogenic peptide substrate at a concentration of 10 μM in Assay Buffer (50 mM HEPES, pH 7.5, 100 mM NaCl, 0.01% polyethylene glycol sorbitan monolaurate (Tween-20), 10 μM ZnSO4).
Test compounds were assayed over the range of concentrations from 10 μM to 20 pM. Test compounds were added to the enzyme and incubated for 30 minute at 37° C. prior to initiating the reaction by the addition of substrate. Reactions were terminated after 20 minutes of incubation at 37° C. by the addition of glacial acetic acid to a final concentration of 3.6% (v/v).
Plates were read on a fluorometer with excitation and emission wavelengths set to […]. Inhibition constants were obtained by nonlinear regression of the data using the equation (GraphPad Software, Inc., San Diego, Calif.): v=v0/[1+(I/K′)] where v is the reaction rate, v0 is the uninhibited reaction rate, I is the inhibitor concentration and K′ is the apparent inhibition constant.
The compounds were tested in this assay and found to have pKi values at human NEP as follows.

Data set [2] can be described thus: IV/PO pharmacokinetic study in rats. The format is in vivo, male Sprague-Dawley rats. On the set-up: AUC(0-t): concentration or dose not given beside the values. To be noted: rat; for AUC(0-t) / bioavailability: male, Sprague-Dawley, plasma; for AUC(0-t): read-out: AUClast Mean; for bioavailability: PO vs IV AUClast; for CLlast Mean: dose divided by AUClast. As to the method: (§1) Each rat or dog PK study began with formulation of the test compound. Appropriate masses of each test compound were added into a volume of vehicle (e.g. 5% sodium bicarbonate, 5% dextrose in H2O) such that the final concentration of each compound was appropriate to be dosed at 2 mL/kg. Although a homogenous suspension were acceptable for oral dosing, intravenous dosing solutions were sterile-filtered (0.2 μm) prior to dosing to ensure no particulates were administered.
In the rat study, pre-cannulated male Sprague-Dawley rats (3 per route) between 8 and 10 weeks of age were obtained from Harlan Laboratories (Indianapolis, Ind.). Rats received either a single oral gavage or a single intravenous (via lateral tail vein) dose of the dosing solution. The final dose was typically 0.5-3 mg/kg. Serial blood samples were harvested via the cannula implanted in the jugular vein at 3 minutes, 15 minutes, 30 minutes, 1 hour, 2 hours, 4 hours, 6 hours, and 24 hours post-dose. Sampling was performed either manually or using automated blood samplers. Samples were collected into microtainer tubes containing EDTA as the anticoagulant and were processed to plasma by refrigerated centrifugation.
(§2) Plasma samples were extracted with 3 volumes of MeCN containing a suitable internal standard. Extracts were reconstituted into 3 volumes of water containing 1% formic acid, and analyzed via HPLC-coupled MS/MS. Plasma concentration-time data were analyzed using the Phoenix software (Pharsight Corp., St. Louis, Mo.) to calculate pharmacokinetic parameters.
(§3) Plasma clearance was determined from the intravenous arm of the study, and represents the rate at which plasma is cleared of drug. It is equal to the dose divided by the area under the plasma concentration-time curve. In addition to plasma clearance, it is also essential for an orally administered drug to reach efficacious systemic levels following oral delivery. Oral bioavailability is a measurement of plasma exposures following oral administration relative to exposures following intravenous administration.

Data set [3] is described as follows: IV/PO pharmacokinetic study in dogs. The format is in vivo, male beagle dogs. On the set-up: AUC(0-t): concentration or dose not given beside the values. To be noted: dog; for AUC(0-t) / bioavailability: male, beagle, plasma; for AUC(0-t): read-out: AUClast Mean; for bioavailability: PO vs IV AUClast. The protocol:
as §1
In the dog study, male beagle dogs (3 per route) housed at Agilux Laboratories (Worcester, Mass.) and weighing between 7-12 kg received either a single oral gavage or a single intravenous (via indwelling catheter) dose of the dosing solution. The final dose was typically 0.1-2 mg/kg. Serial blood samples were harvested via direct venipuncture at 3 minutes, 15 minutes, 30 minutes, 1 hour, 2 hours, 4 hours, 6 hours, 8 hours, 12 hours, and 24 hours post-dose. All samples were collected manually into microtainer tubes containing EDTA as the anticoagulant and were processed to plasma by refrigerated centrifugation.
as §2, §3

The target in a further data set is T2, NEP (Rattus norvegicus, UniProt P07861).
T2 construct: Pre-cannulated male Sprague-Dawley rats (3 per compound evaluated) between 8 and 10 weeks of age were obtained from Harlan Laboratories; from tissue; host or cells: whole animal: conscious male Sprague-Dawley rats (Harlan Laboratories)
T2 sequence (P07861 1-750): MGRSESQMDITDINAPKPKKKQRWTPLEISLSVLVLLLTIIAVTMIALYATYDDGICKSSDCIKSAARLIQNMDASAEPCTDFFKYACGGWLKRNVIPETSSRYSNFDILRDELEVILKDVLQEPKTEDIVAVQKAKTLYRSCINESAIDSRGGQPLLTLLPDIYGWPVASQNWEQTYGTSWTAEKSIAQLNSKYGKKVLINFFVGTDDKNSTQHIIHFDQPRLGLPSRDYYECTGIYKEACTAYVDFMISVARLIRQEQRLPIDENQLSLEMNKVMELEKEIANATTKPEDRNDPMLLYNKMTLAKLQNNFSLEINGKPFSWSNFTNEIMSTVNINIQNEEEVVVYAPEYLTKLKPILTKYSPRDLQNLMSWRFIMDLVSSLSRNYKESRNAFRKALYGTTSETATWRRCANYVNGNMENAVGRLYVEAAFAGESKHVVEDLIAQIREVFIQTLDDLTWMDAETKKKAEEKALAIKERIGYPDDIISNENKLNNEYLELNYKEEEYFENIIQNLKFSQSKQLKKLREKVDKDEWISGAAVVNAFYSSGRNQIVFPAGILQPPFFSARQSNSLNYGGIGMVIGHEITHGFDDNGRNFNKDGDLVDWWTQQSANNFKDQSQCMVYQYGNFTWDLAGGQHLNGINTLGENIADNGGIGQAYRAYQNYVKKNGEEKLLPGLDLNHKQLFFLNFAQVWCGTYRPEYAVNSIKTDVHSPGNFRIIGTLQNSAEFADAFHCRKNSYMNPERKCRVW
Put plainly: PK-PD assay for NEP activity in conscious normotensive Sprague-Dawley rats (plasma cGMP after ANP bolus). To be noted: rat plasma, 3 mg/kg oral, 15 min after IV ANP bolus (30 μg/kg); average of three determinations. It counts as in vivo, male Sprague-Dawley rats. The protocol: Appropriate masses of each test compound were added into a volume of vehicle (e.g. 5% sodium bicarbonate, 5% dextrose in H2O) such that the final concentration of each compound was appropriate to be dosed at 2 mL/kg. Note that a homogenous suspension was deemed to be acceptable for oral dosing.
Pre-cannulated male Sprague-Dawley rats (3 per compound evaluated) between 8 and 10 weeks of age were obtained from Harlan Laboratories (Indianapolis, Ind.). Rats received a single oral gavage of the dosing solution. The final dose was typically in the range of 3-30 mg/kg. Serial blood samples were harvested via the cannula implanted in the jugular vein at 3 minutes, 15 minutes, 35 minutes, 45 minutes, 1 hour, 2 hours, 4 hours, 6 hours, and 24 hours post-dose. Samples were collected into microtainer tubes containing EDTA as the anticoagulant and were processed to plasma by refrigerated centrifugation. Fifteen minutes prior to the 45 minute, 2 hour, 4 hour, 6 hour, and 24 hour samples, an IV bolus (30 μg/kg) of Atrial Natriuretic Peptide (ANP) was administered. […] Since binding of ANP to its receptor leads to activation of guanylyl cyclase and subsequent production of cyclic guanosine monophosphate (cGMP), the observation of elevated levels of cGMP (>20 nM) in plasma 15 minutes after the IV administration of the ANP bolus was interpreted as evidence of ongoing neprilysin inhibition. Elevated levels plasma cGMP levels 24 hours after dosing is an indicator of the duration pharmacologic effect, analogous to plasma clearance values as indicators of pharmacokinetic persistence.
Plasma samples were extracted with 3 volumes of MeCN containing a suitable internal standard. Extracts were reconstituted into 3 volumes of water containing 1% formic acid. Plasma cGMP and test compound concentrations were quantified in plasma samples by HPLC-coupled mass spectrometric detection.

Data set [4] is described as follows: Dynamic moisture sorption (DMS) assessment. It counts as physicochemical. As to the method:
DMS measurements were performed using a VTI atmospheric microbalance, SGA-100 system (VTI Corp., Hialeah, Fla. 33016). A weighed sample was used and the humidity was lowest possible value (close to 0% relative humidity) at the start of the analysis. The DMS analysis consisted of a scan rate of 5% relative humidity/step over the full humidity range of 5-90%. The DMS run was performed isothermally at 25° C.

T1 sequence (P08473 52-750 limits assumed): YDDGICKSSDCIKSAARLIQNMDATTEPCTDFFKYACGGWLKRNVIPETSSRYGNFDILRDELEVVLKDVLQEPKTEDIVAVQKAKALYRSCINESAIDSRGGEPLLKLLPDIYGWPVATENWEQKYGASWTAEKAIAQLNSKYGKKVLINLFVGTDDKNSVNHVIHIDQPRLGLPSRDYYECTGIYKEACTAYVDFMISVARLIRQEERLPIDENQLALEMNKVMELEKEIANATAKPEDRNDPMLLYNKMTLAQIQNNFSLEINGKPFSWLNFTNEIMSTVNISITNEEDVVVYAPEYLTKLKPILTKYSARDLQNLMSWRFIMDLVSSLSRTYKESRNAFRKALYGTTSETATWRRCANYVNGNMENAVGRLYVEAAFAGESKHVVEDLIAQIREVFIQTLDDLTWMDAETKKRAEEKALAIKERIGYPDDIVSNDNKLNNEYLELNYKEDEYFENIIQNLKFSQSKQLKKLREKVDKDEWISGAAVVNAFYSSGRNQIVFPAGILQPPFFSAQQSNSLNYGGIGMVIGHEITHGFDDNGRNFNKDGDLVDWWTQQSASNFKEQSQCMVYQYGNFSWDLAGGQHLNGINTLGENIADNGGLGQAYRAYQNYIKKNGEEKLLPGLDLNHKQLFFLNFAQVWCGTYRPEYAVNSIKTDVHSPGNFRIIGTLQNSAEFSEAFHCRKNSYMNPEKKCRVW

For orientation: bioavailability means dose-corrected exposure relative to a reference, in per cent. Consider `C[C@H](C[C@@H](Cc1ccc(-c2cc(Cl)ccc2F)cc1)NC(=O)c1cnco1)C(=O)O` [Comparison Compound C4, (2R,4S)-5-(5′-Chloro-2′-fluorobiphenyl-4-yl)-2-methyl-4-[(oxazole-5-carbonyl)amino]pentanoic Acid], for which the Ki in data set [1] is 0.501 nM. Also, the AUC(0-t) in data set [2] (IV) worked out at 830 ng·h/mL; in data set [2] (PO), 500 ng·h/mL; in data set [3] (IV), 70 ng·h/mL; in data set [3] (PO) it was 30 ng·h/mL. In addition, the bioavailability in data set [2] stood at 60%; in data set [3], 42%. In addition, the results for the “CLlast Mean” value in data set [2] (IV) and in data set [3] (IV) were 11.2 mL/min/kg and 25.7 mL/min/kg, respectively. For the same compound, the “cGMP Concentration 24 hours After Dosing Mean” value at NEP was 53 nM.

`Cc1cnc(C(=O)N[C@H](Cc2ccc(-c3cc(Cl)ccc3F)cc2)C[C@@H](O)C(=O)O)o1` [Compound 1′, (2R,4R)-5-(5′-Chloro-2′-fluorobiphenyl-4-yl)-2-hydroxy-4-[(5-methyloxazole-2-carbonyl)amino]pentanoic Acid]: the total moisture gain entry in data set [4] (5-70% relative humidity, 25° C.) is listed as “less than 0.025 % by weight”; in data set [4] (5-90% relative humidity, 25° C.) it was “less than 0.235 % by weight”. For the same compound, the “hygroscopicity (DMS isotherm)” value in data set [4] (25° C.) is recorded as “non-hygroscopic solid”. The “solid form (PXRD) after sorption-desorption cycles” value in data set [4] (after two sorption-desorption cycles) is “no change in form”.

As to `COc1cc(C(=O)N[C@H](Cc2ccc(-c3cc(Cl)ccc3F)cc2)C[C@@H](O)C(=O)O)on1` [Comparison Compound C2, (2R,4R)-5-(5′-Chloro-2′-fluorobiphenyl-4-yl)-2-hydroxy-4-[(3-methoxyisoxazole-5-carbonyl)amino]pentanoic Acid], in data set [1], the Ki is 0.126 nM. Moreover, the AUC(0-t) in data set [2] (IV) was 480 ng·h/mL; in data set [2] (PO), 110 ng·h/mL; in data set [3] (IV), 160 ng·h/mL; in data set [3] (PO) it was 160 ng·h/mL. For the same compound, the values for the bioavailability in data set [2] and in data set [3] were 20% and 99%, respectively. The figures for the “CLlast Mean” value in data set [2] (IV) and in data set [3] (IV) were 28.3 mL/min/kg and 10.8 mL/min/kg, respectively. In addition, the “cGMP Concentration 24 hours After Dosing Mean” value on NEP was determined as 45 nM.

On to `CCc1ncc(C(=O)N[C@H](Cc2ccc(-c3cc(Cl)ccc3F)cc2)C[C@@H](C)C(=O)O)o1` [Comparison Compound C3, (2R,4S)-5-(5′-Chloro-2′-fluorobiphenyl-4-yl)-4-[(2-ethyloxazole-5-carbonyl)amino]-2-methylpentanoic Acid], for which the Ki in data set [1] is 0.794 nM. The AUC(0-t) in data set [2] (IV) was 1500 ng·h/mL; in data set [2] (PO), 880 ng·h/mL; in data set [3] (IV), 170 ng·h/mL; in data set [3] (PO) it was 130 ng·h/mL. Besides, the bioavailability in data set [2] is 60%; in data set [3] it was 64%. In addition, the results for the “CLlast Mean” value in data set [2] (IV) and in data set [3] (IV) were 10 mL/min/kg and 9.83 mL/min/kg, respectively. The “cGMP Concentration 24 hours After Dosing Mean” value on NEP was 47 nM.
